Test [1] concerns the target T1, NLRP3 (Homo sapiens, UniProt Q96P20). The test is described as follows: Human whole blood IL1β release assay (LPS + nigericin, AlphaLisa IL-1β; HWB IC50). Format: cell-based. More on the design: Human whole blood in Li-heparin tubes was obtained from healthy donors from a volunteer donor panel; from tissue; host or cells: human whole blood from healthy donors. Particulars: IL-1β release. In outline:
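Donor Li-heparin whole blood primed with 1 μg/ml LPS, given compound (8-point half-log series, 10 μM top; DMSO 0.1% final) for 3 h at 37 °C, then nigericin 10 μM final for 1 h. Supernatant IL-1β measured by AlphaLisa; IC50 from 4-parameter variable-slope fit.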
On the technique in general: Bead proximity is the source of the signal in Alpha formats.

In test [2] the target is T1, NLRP3. The test is described as follows: THP-1 cells pyroptosis assay (LPS + nigericin, resazurin readout; THP IC50). More on the design: Seed THP-1 cells (25,000 cells/well) containing 1.0 μg/ml LPS in 40 μl of RPMI medium; host or cells: THP-1 cells. It counts as cell-based. In outline:
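Human THP-1 cells, 25,000/well in serum-free RPMI with 1 μg/ml LPS, treated 3 hrs at 37° C with compound (8-point half-log, 10 μM top, 0.1% DMSO), then 5 μM nigericin 1 hr. Viability by 100 μM resazurin fluorescence after 1-2 hrs; IC50 by 4-parameter fit.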
For orientation: Resazurin is reduced to fluorescent resorufin, in cell work by metabolically active cells.

A word on the IC50: it is the point on the concentration scale where inhibition reaches its midpoint.

Counter-ions that a name gives are not always drawn.

T1 sequence (Q96P20 whole entry): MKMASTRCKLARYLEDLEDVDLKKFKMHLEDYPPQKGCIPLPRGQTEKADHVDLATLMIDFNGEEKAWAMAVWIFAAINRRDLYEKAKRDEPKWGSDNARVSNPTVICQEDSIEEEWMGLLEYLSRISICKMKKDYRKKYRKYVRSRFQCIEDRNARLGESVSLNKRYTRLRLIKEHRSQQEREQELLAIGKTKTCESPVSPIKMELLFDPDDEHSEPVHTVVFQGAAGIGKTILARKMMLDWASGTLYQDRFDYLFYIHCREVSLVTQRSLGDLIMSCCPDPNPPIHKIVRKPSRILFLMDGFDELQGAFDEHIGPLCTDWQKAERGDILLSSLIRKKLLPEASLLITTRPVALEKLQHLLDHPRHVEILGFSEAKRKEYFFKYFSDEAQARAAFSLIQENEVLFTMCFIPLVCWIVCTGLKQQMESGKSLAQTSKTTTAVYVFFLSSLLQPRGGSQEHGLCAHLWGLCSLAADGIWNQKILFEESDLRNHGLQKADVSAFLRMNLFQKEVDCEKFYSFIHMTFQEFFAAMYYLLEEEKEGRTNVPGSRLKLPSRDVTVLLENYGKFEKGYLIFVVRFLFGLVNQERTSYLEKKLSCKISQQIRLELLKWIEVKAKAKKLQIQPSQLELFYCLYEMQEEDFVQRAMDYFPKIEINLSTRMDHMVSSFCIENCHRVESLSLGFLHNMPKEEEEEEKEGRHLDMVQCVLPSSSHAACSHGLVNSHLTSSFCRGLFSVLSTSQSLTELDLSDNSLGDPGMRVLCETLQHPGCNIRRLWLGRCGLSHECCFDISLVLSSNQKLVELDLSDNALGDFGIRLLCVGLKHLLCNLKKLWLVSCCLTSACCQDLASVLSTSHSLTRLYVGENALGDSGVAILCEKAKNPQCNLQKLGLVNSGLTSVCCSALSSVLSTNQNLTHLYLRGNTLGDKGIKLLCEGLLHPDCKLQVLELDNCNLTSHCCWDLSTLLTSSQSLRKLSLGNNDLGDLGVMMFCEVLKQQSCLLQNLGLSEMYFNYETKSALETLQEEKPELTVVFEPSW

Consider `COc1cc(-c2ccc3c(c2NC(=O)NS(=O)(=O)c2ccn(CCF)n2)CCC3)ccn1` [Example 249, 1-(2-Fluoroethyl)-N-((5-(2-methoxypyridin-4-yl)-2,3-dihydro-1H-inden-4-yl)carbamoyl)-1H-pyrazole-3-sulfonamide, sodium salt], for which the IC50 on NLRP3 [1] and at NLRP3 [2] was at most 0.5 µM in each case.
On to `COc1cc(-c2ccc3c(c2NC(=O)NS(=O)(=O)c2cnn(C(C)C)c2)CCC3)ccn1` [Example 250, 1-Isopropyl-N-((5-(2-methoxypyridin-4-yl)-2,3-dihydro-1H-inden-4-yl)carbamoyl)-1H-pyrazole-4-sulfonamide, sodium salt], for which the concentration for half-maximal inhibition (IC50) on NLRP3 [1] and on NLRP3 [2] was at most 0.5 µM throughout.
With `COc1cc(-c2ccc3c(c2NC(=O)NS(=O)(=O)c2ccn(C(C)(C)C)n2)CCC3)ccn1` [Example 252, 1-(tert-Butyl)-N-((5-(2-methoxypyridin-4-yl)-2,3-dihydro-1H-inden-4-yl)carbamoyl)-1H-pyrazole-3-sulfonamide, sodium salt], the half-maximal inhibitory concentration (IC50) on NLRP3 [1] and on NLRP3 [2] was at most 0.5 µM throughout.
On to `CNc1cc(-c2ccc3c(c2NC(=O)NS(=O)(=O)c2ccn(C4CC4)n2)CCC3)ccn1` [Example 253, 1-Cyclopropyl-N-((5-(2-(methylamino)pyridin-4-yl)-2,3-dihydro-1H-inden-4-yl)carbamoyl)-1H-pyrazole-3-sulfonamide], for which the IC50 is at most 5 µM on NLRP3 [1] and at most 1 µM at NLRP3 [2].
On to `COc1cc(-c2ccc3c(c2NC(=O)NS(=O)(=O)c2ccn(C4CC4)n2)CCC3)c(F)cn1` [Example 255, 1-Cyclopropyl-N-((5-(5-fluoro-2-methoxypyridin-4-yl)-2,3-dihydro-1H-inden-4-yl)carbamoyl)-1H-pyrazole-3-sulfonamide, sodium salt], for which the 50% inhibitory concentration (IC50) at NLRP3 [1] and at NLRP3 [2] was at most 0.5 µM throughout.
As to `COc1cc(-c2ccc3c(c2NC(=O)NS(=O)(=O)c2ccn(C4CCC4)n2)CCO3)ccn1` [Example 257, 1-Cyclobutyl-N-((5-(2-methoxypyridin-4-yl)-2,3-dihydrobenzofuran-4-yl)carbamoyl)-1H-pyrazole-3-sulfonamide, sodium salt], the IC50 on NLRP3 [1] and on NLRP3 [2] was at most 0.5 µM in each case.
For the compound `COc1cc(-c2ccc3c(c2NC(=O)NS(=O)(=O)c2ccn(C(C)(C)CN4CCC4)n2)CCO3)ccn1` [Example 258, 1-(1-(Azetidin-1-yl)-2-rnethylpropan-2-yl)-N-((5-(2-methoxypyridin-4-yl)-2,3-dihydrobenzofuran-4-yl)carbamoyl)-1H-pyrazole-3-sulfonamide, sodium salt], the IC50 on NLRP3 [1] and at NLRP3 [2] was at most 0.5 µM throughout.
For `COc1cc(-c2ccc3c(c2NC(=O)NS(=O)(=O)c2ccn(C(C)(C)C)n2)CCO3)ccn1` [Example 259, 1-(tert-Butyl)-N-((5-(2-methoxypyridin-4-yl)-2,3-dihydrobenzofuran-4-yl)carbamoyl)-1H-pyrazole-3-sulfonamide, sodium salt], the concentration for half-maximal inhibition (IC50) at NLRP3 [1] and at NLRP3 [2] was at most 0.5 µM in each case.
`CC(C)n1ncc(S(=O)(=O)NC(=O)Nc2c(-c3ccnc(C#N)c3)ccc3c2CCC3)n1` [Example 260, N-((5-(2-Cyanopyridin-4-yl)-2,3-dihydro-1H-inden-4-yl)carbamoyl)-2-isopropyl-2H-1,2,3-triazole-4-sulfonamide, sodium salt]: the results for the IC50 on NLRP3 [1] and on NLRP3 [2] were at most 5 µM and at most 0.5 µM, respectively.
`O=C(Nc1c(-c2ccnc(OC3CC3)c2)ccc2c1CCC2)NS(=O)(=O)c1ccn(C2CC2)n1` [Example 261, N-((5-(2-Cyclopropoxypyridin-4-yl)-2,3-dihydro-1H-inden-4-yl)carbamoyl)-1-cyclopropyl-1H-pyrazole-3-sulfonamide, sodium salt]: the values for the IC50 on NLRP3 [1] and at NLRP3 [2] were at most 5 µM and at most 0.5 µM, respectively.
For `O=C(Nc1c(-c2ccnc(OC(F)F)c2)ccc2c1CCC2)NS(=O)(=O)c1ccn(C2CC2)n1` [Example 262, 1-Cyclopropyl-N-((5-(2-(difluoromethoxy)pyridin-4-yl)-2,3-dihydro-1H-inden-4-yl)carbamoyl)-1H-pyrazole-3-sulfonamide, sodium salt], the IC50 on NLRP3 [1] is at most 1 µM; on NLRP3 [2], at most 0.5 µM.
Turning to `COc1cc(-c2ccc3c(c2NC(=O)NS(=O)(=O)c2ccn(CC4CC4)n2)CCC3)ccn1` [Example 263, 1-(Cyclopropylmethyl)-N-((5-(2-methoxypyridin-4-yl)-2,3-dihydro-1H-inden-4-yl)carbamoyl)-1H-pyrazole-3-sulfonamide, sodium salt], the concentration for half-maximal inhibition (IC50) at NLRP3 [1] and on NLRP3 [2] was at most 0.5 µM each time.
On to `CC(C)(C)n1ccc(S(=O)(=O)NC(=O)Nc2c(-c3ccnc(C#N)c3)ccc3c2CCC3)n1` [Example 264, 1-(tert-Butyl)-N-((5-(2-cyanopyridin-4-yl)-2,3-dihydro-1H-inden-4-yl)carbamoyl)-1H-pyrazole-3-sulfonamide, sodium salt], for which the half-maximal inhibitory concentration (IC50) at NLRP3 [1] and at NLRP3 [2] was at most 0.5 µM throughout.
As to `COc1cc(-c2ccc3c(c2NC(=O)NS(=O)(=O)c2ccn(C4CC4)n2)CCO3)c(F)cn1` [Example 265, 1-Cyclopropyl-N-((5-(5-fluoro-2-methoxypyridin-4-yl)-2,3-dihydrobenzofuran-4-yl)carbamoyl)-1H-pyrazole-3-sulfonamide, sodium salt], the half-inhibitory concentration (IC50) at NLRP3 [1] and on NLRP3 [2] was at most 0.5 µM throughout.
`O=C(Nc1c(-c2ccnc(OC3CC3)c2)ccc2c1CCO2)NS(=O)(=O)c1ccn(C2CCC2)n1` [Example 266, 1-Cyclobutyl-N-((5-(2-cyclopropoxypyridin-4-yl)-2,3-dihydrobenzofuran-4-yl)carbamoyl)-1H-pyrazole-3-sulfonamide, sodium salt]: the IC50 was at most 1 µM on NLRP3 [1] and at most 0.5 µM on NLRP3 [2].
Take `COc1cc(-c2ccc3c(c2NC(=O)NS(=O)(=O)c2ccn(CC4CC4)n2)CCO3)ccn1` [Example 267, 1-(Cyclopropylmethyl)-N-((5-(2-methoxypyridin-4-yl)-2,3-dihydrobenzofuran-4-yl)carbamoyl)-1H-pyrazole-3-sulfonamide, sodium salt]: the 50% inhibitory concentration (IC50) at NLRP3 [1] and on NLRP3 [2] was at most 0.5 µM throughout.
`Cc1cc(-c2ccc3c(c2NC(=O)NS(=O)(=O)c2ccn(C4CCC4)n2)CCC3)ccn1` [Example 269, 1-Cyclobutyl-N-((5-(2-methylpyridin-4-yl)-2,3-dihydro-1H-inden-4-yl)carbamoyl)-1H-pyrazole-3-sulfonamide, sodium salt]: the IC50 on NLRP3 [1] and on NLRP3 [2] was at most 0.5 µM each time.
Consider `Cc1cc(-c2ccc3c(c2NC(=O)NS(=O)(=O)c2ccn(C4CC4)n2)CCC3)ccn1` [Example 270, 1-Cyclopropyl-N-((5-(2-methylpyridin-4-yl)-2,3-dihydro-1H-inden-4-yl)carbamoyl)-1H-pyrazole-3-sulfonamide, sodium salt], for which the IC50 on NLRP3 [1] and at NLRP3 [2] was at most 0.5 µM each time.
Turning to `N#Cc1cc(-c2ccc3c(c2NC(=O)NS(=O)(=O)c2ccn(CC4CC4)n2)CCC3)ccn1` [Example 271, N-((5-(2-Cyanopyridin-4-yl)-2,3-dihydro-1H-inden-4-yl)carbamoyl)-1-(cyclopropylmethyl)-1H-pyrazole-3-sulfonamide], the IC50 on NLRP3 [1] and on NLRP3 [2] was at most 0.5 µM each time.

(Values after US20200361895A1, “NOVEL SULFONAMIDE CARBOXAMIDE COMPOUNDS” (Inflazome Limited, priority 2017, published 2020).)
